The results in this text go back to patent US20240245682A1, “ALPHA-V-BETA-8 INTEGRIN INHIBITORS AND USES THEREOF” (Pliant Therapeutics, Inc., priority 2022, published 2024).

Assay in all cases: AlphaScreen proximity-based integrin binding assay with TGF-b1 LAP
Details in all cases: values given as ranges

The target in assay [1] is human integrin αVβ6 (Homo sapiens, UniProt P06756+P18564). The protocol:
(§1) The biochemical potency of the disclosed compounds was determined using the AlphaScreen® (Perkin Elmer, Waltham, MA) proximity-based assay as described previously (Ullman E F et al., Luminescent oxygen channeling immunoassay: Measurement of particle binding kinetics by chemiluminescence. Proc. Natl. Acad. Sci. USA, Vol. 91, pp. 5426-5430, June 1994, herein incorporated by reference in its entirety). To gauge the potency of inhibitors of binding to each of human integrins αVβ1, αVβ6, and αVβ8, inhibitor compounds were independently incubated with one of αVβ1, αVβ6, or αVβ8, together with TGF-b1 LAP and biotinylated anti-LAP antibody plus acceptor and donor beads, following the manufacture's recommendations. The donor beads were coated with streptavidin. […] All incubations occurred at room temperatures in 50 mM Tris-HCl, pH 7.5, 0.1% BSA supplemented with 1 mM each CaCl2 and MgCl2.
(§2) The order of reagent addition was as follows:
(§3) 1. αVβ1, αVβ6, or αVβ8 integrin, test inhibitor compound, LAP, biotinylated anti-LAP antibody and acceptor beads were all added together.
(§4) 2. After 2 hours, donor beads were added. After another 30 minute incubation, samples were then read.
(§5) Integrin binding was evaluated by exciting donor beads at 680 nm, and measuring the fluorescent signal produced, between 520-620 nm, using a Biotek Instruments (Winooski, VT, USA) SynergyNeo2 multimode plate reader. Compound potency was assessed by determining inhibitor concentrations required to reduce fluorescent light output by 50%. Data analysis for IC50 determinations was carried out by nonlinear four parameter logistic regression analysis using Dotmatics ELN Software (Core Informatics Inc., Branford, Ct). […] Comp #in the Table and Examples below refers to the compound of the corresponding Example number as described in the Synthetic Examples.

The target of assay [2] is human integrin αVβ1 (Homo sapiens, UniProt P05556+P06756). The procedure:
as §1, §2, §3, §4, §5

Assay [3] concerns the target human integrin αVβ8 (Homo sapiens, UniProt P06756+P26012). The procedure: as §1, §2, §3, §4, §5

Sequence of human integrin αVβ8 (P06756 31-992 limits assumed): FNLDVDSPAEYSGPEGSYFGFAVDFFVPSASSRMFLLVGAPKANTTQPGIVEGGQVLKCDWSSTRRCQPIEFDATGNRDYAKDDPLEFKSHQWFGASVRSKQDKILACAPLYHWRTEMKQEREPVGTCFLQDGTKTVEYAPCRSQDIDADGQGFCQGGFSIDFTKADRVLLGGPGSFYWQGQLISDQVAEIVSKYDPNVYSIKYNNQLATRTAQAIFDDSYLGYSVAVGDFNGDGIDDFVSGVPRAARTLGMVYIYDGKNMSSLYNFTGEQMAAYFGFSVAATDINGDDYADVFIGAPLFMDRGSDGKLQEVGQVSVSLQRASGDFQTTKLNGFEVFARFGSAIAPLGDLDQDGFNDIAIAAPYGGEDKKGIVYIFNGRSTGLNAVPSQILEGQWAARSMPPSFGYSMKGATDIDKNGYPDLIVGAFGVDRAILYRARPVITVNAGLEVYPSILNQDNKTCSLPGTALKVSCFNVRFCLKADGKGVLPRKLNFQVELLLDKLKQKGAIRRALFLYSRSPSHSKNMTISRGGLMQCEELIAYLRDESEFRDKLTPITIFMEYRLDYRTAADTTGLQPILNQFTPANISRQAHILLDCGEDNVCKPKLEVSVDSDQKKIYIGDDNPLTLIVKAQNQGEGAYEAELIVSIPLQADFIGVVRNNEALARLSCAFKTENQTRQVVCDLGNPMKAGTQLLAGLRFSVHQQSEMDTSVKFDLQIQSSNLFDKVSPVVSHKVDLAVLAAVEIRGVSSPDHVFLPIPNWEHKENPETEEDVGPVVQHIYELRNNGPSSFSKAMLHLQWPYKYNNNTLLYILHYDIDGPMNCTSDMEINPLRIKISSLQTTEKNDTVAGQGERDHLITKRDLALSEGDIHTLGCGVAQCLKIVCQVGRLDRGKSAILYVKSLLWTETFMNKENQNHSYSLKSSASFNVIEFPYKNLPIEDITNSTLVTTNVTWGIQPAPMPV
Sequence of human integrin αVβ8 (P26012 43-684 limits assumed): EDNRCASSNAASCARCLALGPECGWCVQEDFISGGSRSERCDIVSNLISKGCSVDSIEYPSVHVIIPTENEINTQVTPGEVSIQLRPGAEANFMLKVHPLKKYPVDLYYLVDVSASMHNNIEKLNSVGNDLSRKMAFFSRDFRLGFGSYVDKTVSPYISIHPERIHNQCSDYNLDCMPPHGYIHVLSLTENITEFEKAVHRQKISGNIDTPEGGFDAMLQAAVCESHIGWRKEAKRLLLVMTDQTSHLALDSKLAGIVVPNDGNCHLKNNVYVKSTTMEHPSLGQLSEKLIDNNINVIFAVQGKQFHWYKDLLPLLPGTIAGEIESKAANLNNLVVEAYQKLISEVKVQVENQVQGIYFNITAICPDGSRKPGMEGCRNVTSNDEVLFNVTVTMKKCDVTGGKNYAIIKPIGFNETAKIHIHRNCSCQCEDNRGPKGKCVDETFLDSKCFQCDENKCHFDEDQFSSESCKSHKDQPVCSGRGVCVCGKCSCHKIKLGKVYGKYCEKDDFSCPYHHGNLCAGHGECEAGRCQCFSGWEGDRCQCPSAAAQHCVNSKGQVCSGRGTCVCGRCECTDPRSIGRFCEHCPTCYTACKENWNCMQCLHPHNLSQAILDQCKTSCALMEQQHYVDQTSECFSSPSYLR
Sequence of human integrin αVβ6 (P06756 31-992 limits assumed): as the sequence (P06756 31-992 limits assumed) above
Sequence of human integrin αVβ6 (P18564 22-707 limits assumed): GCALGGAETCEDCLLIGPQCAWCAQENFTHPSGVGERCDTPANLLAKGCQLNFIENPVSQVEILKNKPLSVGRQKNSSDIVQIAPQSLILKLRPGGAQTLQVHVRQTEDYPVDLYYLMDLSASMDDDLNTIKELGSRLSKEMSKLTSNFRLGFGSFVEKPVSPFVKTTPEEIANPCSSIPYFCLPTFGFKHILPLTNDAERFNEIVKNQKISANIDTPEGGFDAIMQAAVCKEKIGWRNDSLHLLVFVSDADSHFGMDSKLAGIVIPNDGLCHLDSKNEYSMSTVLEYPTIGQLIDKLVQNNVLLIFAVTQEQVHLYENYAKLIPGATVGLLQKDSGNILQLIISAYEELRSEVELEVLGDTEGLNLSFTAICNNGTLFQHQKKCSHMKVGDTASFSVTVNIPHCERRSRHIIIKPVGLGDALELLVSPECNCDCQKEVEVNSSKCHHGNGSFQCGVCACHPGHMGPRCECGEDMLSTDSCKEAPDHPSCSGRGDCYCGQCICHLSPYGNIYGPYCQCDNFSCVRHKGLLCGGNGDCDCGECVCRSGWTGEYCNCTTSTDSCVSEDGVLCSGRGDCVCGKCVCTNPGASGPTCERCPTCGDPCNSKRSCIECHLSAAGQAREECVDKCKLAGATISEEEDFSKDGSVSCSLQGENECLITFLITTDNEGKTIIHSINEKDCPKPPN
Sequence of human integrin αVβ1 (P06756 31-992 limits assumed): as the sequence (P06756 31-992 limits assumed) above
Sequence of human integrin αVβ1 (P05556 21-728 limits assumed): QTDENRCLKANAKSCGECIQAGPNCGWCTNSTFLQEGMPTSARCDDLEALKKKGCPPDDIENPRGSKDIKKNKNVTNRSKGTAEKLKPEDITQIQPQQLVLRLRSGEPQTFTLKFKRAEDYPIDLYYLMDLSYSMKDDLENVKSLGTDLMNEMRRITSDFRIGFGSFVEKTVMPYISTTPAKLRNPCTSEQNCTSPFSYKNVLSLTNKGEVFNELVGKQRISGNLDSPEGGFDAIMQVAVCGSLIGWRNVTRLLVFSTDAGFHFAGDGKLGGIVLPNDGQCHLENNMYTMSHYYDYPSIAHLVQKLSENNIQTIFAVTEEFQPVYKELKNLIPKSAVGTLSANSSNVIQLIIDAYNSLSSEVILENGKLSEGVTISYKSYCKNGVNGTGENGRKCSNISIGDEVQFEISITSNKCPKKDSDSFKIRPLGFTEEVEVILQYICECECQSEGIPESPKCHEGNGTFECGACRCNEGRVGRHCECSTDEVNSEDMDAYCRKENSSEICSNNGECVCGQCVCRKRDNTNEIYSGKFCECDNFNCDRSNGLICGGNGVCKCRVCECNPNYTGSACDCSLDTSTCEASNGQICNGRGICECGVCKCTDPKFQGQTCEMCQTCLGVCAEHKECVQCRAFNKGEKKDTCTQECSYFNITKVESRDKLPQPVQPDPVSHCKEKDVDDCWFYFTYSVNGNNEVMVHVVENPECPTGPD

Regarding `Cc1ncnc(O)c1C1(C(=O)N[C@@H](CCOCCCCc2ccc3c(n2)NCCC3)C(=O)O)CC1` [Compound 102, N-(1-(4-hydroxy-6-methylpyrimidin-5-yl)cyclopropane-1-carbonyl)-O-(4-(5,6,7,8-tetrahydro-1,8-naphthyridin-2-yl)butyl)-L-homoserine], the IC50 is > 500 nM in assay [1], 50 to 150 nM in assay [2] and 50 to 150 nM in assay [3].
As for `COc1cccc(C2(C(=O)N[C@@H](CCOCCCCc3ccc4c(n3)NCCC4)C(=O)O)CCOCC2)c1` [Compound 87, N-(4-(3-methoxyphenyl)tetrahydro-2H-pyran-4-carbonyl)-O-(4-(5,6,7,8-tetrahydro-1,8-naphthyridin-2-yl)butyl)-L-homoserine], the results for the IC50 in assay [1], in assay [2] and in assay [3] were > 500 nM, < 50 nM and < 50 nM, respectively.
On to `O=C(O)[C@H](CCOCCCCc1ccc2c(n1)NCCC2)NC(=O)C1(c2ncnc3ccccc23)CC1` [Compound 31, N-(1-(quinazolin-4-yl)cyclopropane-1-carbonyl)-O-(4-(5,6,7,8-tetrahydro-1,8-naphthyridin-2-yl)butyl)-L-homoserine], for which the IC50 in assay [1] is ≥ 500 nM; in assay [2], < 50 nM; in assay [3], < 50 nM.
In the case of `O=C(O)[C@H](CCOCCCCc1ccc2c(n1)NCCC2)NC(=O)C1(C(F)F)CCOC1` (stereo partly drawn) [Compound 83, N-(3-(difluoromethyl)tetrahydrofuran-3-carbonyl)-O-(4-(5,6,7,8-tetrahydro-1,8-naphthyridin-2-yl)butyl)-L-homoserine], the IC50 is 250 to 500 nM in assay [1], < 50 nM in assay [2] and 50 to 150 nM in assay [3].
For `Cc1cc(Cl)n(C2(C(=O)N[C@@H](CCOCCCCc3ccc4c(n3)NCCC4)C(=O)O)CC2)n1` [Compound 72, N-(1-(5-chloro-3-methyl-1H-pyrazol-1-yl)cyclopropane-1-carbonyl)-O-(4-(5,6,7,8-tetrahydro-1,8-naphthyridin-2-yl)butyl)-L-homoserine] the same measures were ≥ 500 nM, < 50 nM and < 50 nM.
The like results for `O=C(O)[C@H](CCOCCCCc1ccc2c(n1)NCCC2)NC(=O)C1(c2ncccc2CF)CC1` [Compound 52, N-(1-(3-(fluoromethyl)pyridin-2-yl)cyclopropane-1-carbonyl)-O-(4-(5,6,7,8-tetrahydro-1,8-naphthyridin-2-yl)butyl)-L-homoserine] were, in that order, ≥ 500 nM, < 50 nM and < 50 nM.
For `N#Cc1cccc(F)c1C1(C(=O)N[C@@H](CCOCCCCc2ccc3c(n2)NCCC3)C(=O)O)CC1` [Compound 37, N-(1-(2-cyano-6-fluorophenyl)cyclopropane-1-carbonyl)-O-(4-(5,6,7,8-tetrahydro-1,8-naphthyridin-2-yl)butyl)-L-homoserine], the IC50 is 250 to 500 nM in assay [1], < 50 nM in assay [2] and < 50 nM in assay [3].
With `Cn1cc(C(F)(F)F)c(C2(C(=O)N[C@@H](CCOCCCCc3ccc4c(n3)NCCC4)C(=O)O)CC2)n1` [Compound 77, N-(1-(1-methyl-4-(trifluoromethyl)-1H-pyrazol-3-yl)cyclopropane-1-carbonyl)-O-(4-(5,6,7,8-tetrahydro-1,8-naphthyridin-2-yl)butyl)-L-homoserine], the half-inhibitory concentration (IC50) is ≥ 500 nM in assay [1], < 50 nM in assay [2] and < 50 nM in assay [3].
In the case of `O=C(O)[C@H](CCOCCCCc1ccc2c(n1)NCCC2)NC(=O)C1(c2ncccn2)CC1` [Compound 12, N-(1-(pyrimidin-2-yl)cyclopropane-1-carbonyl)-O-(4-(5,6,7,8-tetrahydro-1,8-naphthyridin-2-yl)butyl)-L-homoserine], the IC50 was ≥ 500 nM in assay [1], 50 to 150 nM in assay [2] and ≥ 500 nM in assay [3].
As for `COc1ncnc(Cl)c1C1(C(=O)N[C@@H](CCOCCCCc2ccc3c(n2)NCCC3)C(=O)O)CC1` [Compound 62, N-(1-(4-chloro-6-methoxypyrimidin-5-yl)cyclopropane-1-carbonyl)-O-(4-(5,6,7,8-tetrahydro-1,8-naphthyridin-2-yl)butyl)-L-homoserine], the values for the IC50 in assay [1], in assay [2] and in assay [3] were ≥ 500 nM, < 50 nM and < 50 nM, respectively.
On to `Cc1ncnc(Cl)c1C1(C(=O)NC(CCOCCCCc2ccc3c(n2)NCCC3)C(=O)O)CC1` (stereo not drawn) [Compound 101, N-(1-(4-chloro-6-methylpyrimidin-5-yl)cyclopropane-1-carbonyl)-O-(4-(5,6,7,8-tetrahydro-1,8-naphthyridin-2-yl)butyl)homoserine], for which the figures for the IC50 in assay [1], in assay [2] and in assay [3] were > 500 nM, < 50 nM and < 50 nM, respectively.
Regarding `C[C@H](C(=O)N[C@@H](CCOCCCCc1ccc2c(n1)NCCC2)C(=O)O)c1ccccc1` [Compound 3, N—((S)-2-phenylpropanoyl)-O-(4-(5,6,7,8-tetrahydro-1,8-naphthyridin-2-yl)butyl)-L-homoserine], the IC50 in assay [1] is ≥ 500 nM; in assay [2], < 50 nM; in assay [3] it was < 50 nM.
`O=C(N[C@@H](CCOCCCCc1ccc2c(n1)NCCC2)C(=O)O)c1ccn(-c2ccccc2)n1` [Compound 97, N-(1-phenyl-1H-pyrazole-3-carbonyl)-O-(4-(5,6,7,8-tetrahydro-1,8-naphthyridin-2-yl)butyl)-L-homoserine]: the IC50 lay within 250 to 500 nM in assay [1], 50 to 150 nM in assay [2] and 250 to 500 nM in assay [3].
In the case of `O=C(O)[C@H](CCOCCCCc1ccc2c(n1)NCCC2)NC(=O)C1(c2ncncc2Cl)CC1` [Compound 49, N-(1-(5-chloropyrimidin-4-yl)cyclopropane-1-carbonyl)-O-(4-(5,6,7,8-tetrahydro-1,8-naphthyridin-2-yl)butyl)-L-homoserine], the results for the IC50 in assay [1], in assay [2] and in assay [3] were ≥ 500 nM, < 50 nM and < 50 nM, respectively.
`O=C(O)[C@H](CCOCCCCc1ccc2c(n1)NCCC2)NC(=O)C1(c2cncnc2C(F)(F)F)CC1` [Compound 48, O-(4-(5,6,7,8-tetrahydro-1,8-naphthyridin-2-yl)butyl)-N-(1-(4-(trifluoromethyl)pyrimidin-5-yl)cyclopropane-1-carbonyl)-L-homoserine]: the IC50 in assay [1] is ≥ 500 nM; in assay [2], < 50 nM; in assay [3], < 50 nM.
On to `O=C(O)[C@H](CCOCCCCc1ccc2c(n1)NCCC2)NC(=O)C1(c2c(Cl)cn[nH]c2=O)CC1` [Compound 76, N-(1-(5-chloro-3-oxo-2,3-dihydropyridazin-4-yl)cyclopropane-1-carbonyl)-O-(4-(5,6,7,8-tetrahydro-1,8-naphthyridin-2-yl)butyl)-L-homoserine], for which the IC50 is ≥ 500 nM in assay [1], < 50 nM in assay [2] and < 50 nM in assay [3].
On to `O=C(O)[C@H](CCOCCCCc1ccc2c(n1)NCCC2)NC(=O)C1(n2c(C3CC3)cccc2=O)CC1` [Compound 91, N-(1-(6-cyclopropyl-2-oxopyridin-1(2H)-yl)cyclopropane-1-carbonyl)-O-(4-(5,6,7,8-tetrahydro-1,8-naphthyridin-2-yl)butyl)-L-homoserine], for which the 50% inhibitory concentration (IC50) is > 500 nM in assay [1], < 50 nM in assay [2] and 50 to 150 nM in assay [3].
On to `Cc1cncc(F)c1C1(C(=O)N[C@@H](CCOCCCCc2ccc3c(n2)NCCC3)C(=O)O)CC1` [Compound 47, N-(1-(3-fluoro-5-methylpyridin-4-yl)cyclopropane-1-carbonyl)-O-(4-(5,6,7,8-tetrahydro-1,8-naphthyridin-2-yl)butyl)-L-homoserine], for which the half-maximal inhibitory concentration (IC50) in assay [1] was 250 to 500 nM; in assay [2], < 50 nM; in assay [3], < 50 nM.
As to `O=C(O)[C@H](CCOCCCCc1ccc2c(n1)NCCC2)NC(=O)C1(c2ccccc2F)CC1` [Compound 9, N-(1-(2-fluorophenyl)cyclopropane-1-carbonyl)-O-(4-(5,6,7,8-tetrahydro-1,8-naphthyridin-2-yl)butyl)-L-homoserine], the concentration for half-maximal inhibition (IC50) in assay [1] is ≥ 500 nM; in assay [2], < 50 nM; in assay [3] it was < 50 nM.
Take `COc1cncc(Cl)c1C1(C(=O)N[C@@H](CCOCCCCc2ccc3c(n2)NCCC3)C(=O)O)CC1` [Compound 34, N-(1-(3-chloro-5-methoxypyridin-4-yl)cyclopropane-1-carbonyl)-O-(4-(5,6,7,8-tetrahydro-1,8-naphthyridin-2-yl)butyl)-L-homoserine]: the IC50 in assay [1] was ≥ 500 nM; in assay [2], < 50 nM; in assay [3], < 50 nM.
On to `N#Cc1cncc(C2(C(=O)N[C@@H](CCOCCCCc3ccc4c(n3)NCCC4)C(=O)O)CC2)c1` [Compound 27, N-(1-(5-cyanopyridin-3-yl)cyclopropane-1-carbonyl)-O-(4-(5,6,7,8-tetrahydro-1,8-naphthyridin-2-yl)butyl)-L-homoserine], for which the 50% inhibitory concentration (IC50) was ≥ 500 nM in assay [1], < 50 nM in assay [2] and 150 to 250 nM in assay [3].
